Results reported in patent publication US20080014192A1, “Methods For The Diagnosis And Treatment of Fungal Infections Caused By Microorganisms Producing Glucosylceramide” (priority 2006, published 2008).

Columns and labels:
[1] = test system: Cn WT (C. neoformans var. grubii serotype A H99); test: Survival of Tgε26 mice infected intranasally with Cn wild-type; format: in vivo, Cryptococcus neoformans; conditions: Cn WT intranasal, weekly intranasal liposome treatment, no significant change vs controls
Procedure: (§1) Animal studies. Four to six-week-old Tgε26 mice (Wang et al., 1994; Wang et al., 1997), available in our Animal Core Facility, Medical University of South Carolina, Charleston, S.C., were used for this study. Mice were anesthetized with an intraperitoneal injection of 60 μl xylaxine/ketamine mixture containing 5 mg xylazine and 95 mg ketamine per kilogram of body weight. Wild-type and mutant strains of Cn were grown in YPD media for 24 hrs at 30° C. The yeast cells were harvested and washed three times by centrifugation at 3000 rpm for 10 minutes and resuspended in sterile PBS (pH=7.4) at a concentration of 2.5×10^7 cells/ml. Mice were infected intranasally with 20 μl containing 5×10^5 wild-type, Δgcs1 or Δgcs1+GCS1 cells. Mice were fed ad libitum and monitored by twice-daily inspections. Mice that appeared moribund, in pain or with clinical signs of meningoencephalitis were sacrificed using CO2 inhalation followed by cervical dislocation. […] Survival data from the mice experiment were analyzed by Kluskal-Wallis test. […]
(§2) Alveolar macrophage depletion was evaluated by intranasally introducing 60 μl of PBS, empty liposome or liposomes containing clodronate into the mouse and performing bronchoalveolar lavage at 48 hours or 6 days. […] The collected fluid was spun down and alveolar macrophages were counted. […]

[2] = test system: Cn WT (C. neoformans var. grubii serotype A H99); test: Tissue fungal burden (CFU) in Tgε26 mice infected with Cn wild-type; format: in vivo, Cryptococcus neoformans
Procedure: (§3) Alveolar macrophage depletion was evaluated by intranasally introducing 60 μl of PBS, empty liposome or liposomes containing clodronate into the mouse and performing bronchoalveolar lavage at 48 hours or 6 days. Bronchoalveolar lavage was done by inserting a stub adapter in the trachea of the mouse and rinsing the alveolar spaces 10 times using 0.5 ml PBS (pH=7.4) for each wash. The collected fluid was spun down and alveolar macrophages were counted. Lavage samples were taken from two mice per time point per group. Experimental groups were divided into five mice each receiving PBS (control group), empty liposome (control group) or liposome encapsulated clodronate administered mice. Two days before infection with yeast, the mice were anesthesized and given 60 μl of PBS, empty liposomes or clodronate-encapsulated liposomes. After 48 hrs, mice were infected with the yeast cells as described above. Mice continued to receive PBS, liposome or clodronate treatment weekly.
(§4) Tissue fungal burden. […] Organs were homogenized in sterile PBS, using the Stomacher 80 (Lab system, Fisher Scientific, Pittsburgh, Pa., USA) for 2 minutes. Serial dilutions were then plated onto YPD plates and colony-forming units were counted and recorded. Statistical analysis was performed using Student's t test, and a p value of less than 0.05 was considered to be significant.
Tissue burden studies. […]

alveolar macrophages = test: Alveolar macrophage depletion, count in bronchoalveolar lavage after intranasal liposomes; format: in vivo, mouse; conditions: P<0.05
Procedure: Alveolar macrophage depletion. Liposomes containing clodronate (dichloromethylenediphosphonic acid disodium salt) and empty liposomes used as control, were prepared as described previously (Van Rooijen, 1994). Briefly, 8 mg cholesterol (Avanti Polar Lipids) and 86 mg L-alpha phosphatidylcholine (Avanti Polar Lipids) were dissolved in chloroform, which was then slowly evaporated. The thin, filmy layer was resuspended in 10 ml of PBS or 0.6M clodronate. The mixture was exposed to N2 gas and incubated 2 hours at room temperature with gentle shaking. The mixture was then sonicated and incubated another 2 hours to allow liposome swelling. The solution was centrifuged at 10,000 g for 15 minutes and the liposomes containing clodronate were collected and washed twice with sterile PBS. The liposomes were kept at 4° C. under N2 until use for a maximum of 2 weeks.
as §2
Pharmacological depletion of alveolar macrophage. […] After 48 hours or 7 days from the injection, mice were sacrificed, the bronco alveolar lavage (BAL) fluid was collected and viability of alveolar macrophages assessed microscopically.

Cn Δgcs1 mutant [3] = test: Survival of Tgε26 mice infected intranasally with Cn Δgcs1; format: in vivo, Cryptococcus neoformans
Procedure: as §1, §2

Cn Δgcs1 mutant [4] = test: Tissue fungal burden (CFU) in Tgε26 mice infected with Cn Δgcs1; format: in vivo, Cryptococcus neoformans
Procedure: as §3, §4
Tissue burden studies. To address the effect of macrophage depletion on the dissemination of Δgcs1 cells, we performed tissue burden studies of lung, brain, spleen, and kidney upon infection of Cn WT or Δgcs1 strain.

Cn Δgcs1 mutant [5] = test: Lung histopathology of Tgε26 mice infected with Cn Δgcs1; format: in vivo, Cryptococcus neoformans; conditions: day 16 and day 36 of infection; vs empty liposome
Procedure: Histological analyses. Organs were harvested and fixed for 48 hours in 37% formaldehyde, paraffin-embedded, sectioned and stained with movat, mucicarmine, or hematoxylin and eosin.
Histopathology. To gain further insights in the host inflammatory response against Cn Δgcs1 cells in mice in which macrophages have been deleted, we performed a histology analysis on lungs of Tgε26 mice infected with Δgcs1 strain and receiving empty liposome or liposome containing clodronate.

fungal cells = conditions: Ma et al., 2006 and Alvarez et al.; cited from earlier work

Row | SMILES | average survival of Cn-infected mice [1] | tissue burden culture in the brain, Cn WT ([2]; Tgε26 mice, FIG. 15B) | tissue colonization of Cn WT cells in all organs analyzed ([2]; lung, brain, spleen, kidney, vs PBS or empty liposome groups) | decrease in number of alveolar macrophages (AMs) (alveolar macrophages; 48 hours after single intranasal 60 μl dose of liposome suspension, vs PBS- or empty liposome-treated mice) | reduction of AMs (alveolar macrophages; 7 days after single intranasal 60 μl dose of liposome suspension, vs control-treated mice) | additional days of survival of infection by the Δgcs1 strain (Cn Δgcs1 mutant [3]; Tgε26 mice depleted of AMs) | average survival of Δgcs1-infected mice (Cn Δgcs1 mutant [3]; {}) | number of fungal cells in all organs analyzed, Δgcs1 (Cn Δgcs1 mutant [4]; lung, brain, kidney, spleen, vs control treated groups, P<0.05) | reduction of lung Δgcs1 fungal load (Cn Δgcs1 mutant [4]; macrophage-depleted Tgε26 lungs, P<0.001) | delay in fungal growth in all other organs (Cn Δgcs1 mutant [4]; {}) | lung histopathology, Δgcs1 cells (Cn Δgcs1 mutant [5]) | extrusion of fungal cells from the intracellular to the extracellular compartment (fungal cells)
1 | O=P([O-])([O-])C(Cl)(Cl)P(=O)(O)O.[Na+].[Na+] [clodronate, dichloromethylenediphosphonic acid disodium salt] | 12.8 ± 5.2 days | reduction of tissue burden culture in the brain (FIG. 15B) but this difference was not statistically significant | No statistically significant differences | 58% | 52% | 18 to 20 days | 76.6 ± 5.3 days | significantly lower number of fungal cells | > 3000 fold | 14 days | few Δgcs1 cells in the lung parenchyma | –
2 | CCN(CC)CCCC(C)Nc1ccnc2cc(Cl)ccc12 (stereo not drawn) [chloroquine] | – | – | – | – | – | – | – | – | – | – | – | promote extrusion of fungal cells
